# “Also recorded” adds a separate entry of the source.
# Assays:
# Ras-transformed cells = conditions: Aharonson et al., 1998; cited from earlier work
# membrane Ras = molecular target: T1, membrane Ras (Homo sapiens, UniProt P01112, G12V); experiment: Membrane Ras in intact EJ cells treated with FTS or GTS; assay type: cell-based, rat; conditions: without cross-linking, data not shown
# T1 construct: expressed in transfected cells; host or cells: Rat-1 fibroblasts stably transformed with H-Ras (12V) (EJ cells)
# Description: (§1) In agreement with previous results [Kloog et al., 1999] FTS, but not GTS, reduced the amount of membrane Ras in the cells by 50-60% (data not shown). Similarly, FTS (but not GTS) induced a 90% reduction in the amount of membrane galectin-1 (FIG. 3). Thus, the magnitude of the FTS-induced galectin-1 decrease was much greater than that of Ras.
# membrane galectin-1 = molecular target: T2, membrane galectin-1 (Rattus norvegicus, UniProt P11762); experiment: Membrane galectin-1 in intact EJ cells treated with FTS or GTS (Western blot); assay type: cell-based; conditions: for reduction in the amount of membrane galectin-1: intact EJ cells, without cross-linking, Western blot (FIG. 3)
# T2 construct: endogenous in cells; host or cells: EJ cells (H-Ras (12V)-transformed Rat-1 fibroblasts)
# T2 sequence (P11762 whole entry): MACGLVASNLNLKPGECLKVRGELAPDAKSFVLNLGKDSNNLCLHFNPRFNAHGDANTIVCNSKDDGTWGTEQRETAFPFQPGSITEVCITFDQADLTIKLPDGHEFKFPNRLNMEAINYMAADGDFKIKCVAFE
# Description: FIG. 3 is a photograph of a Western blot of galectin-1 isolated from cells in the presence of a control, FTS and GTS.
# Yet another aspect of the present invention is directed to a method of determining efficacious dosages of a Ras antagonist that disrupts Ras-anchor protein binding. In general, the method entails contacting cells with the antagonist in vivo or in vitro, collecting the cells following the contacting, isolating cell membranes from the collected cells, measuring decrease in anchor protein concentration per unit of cell membrane protein, and correlating the decrease with dosage of the Ras antagonist. In a preferred embodiment, a method for measuring the biological action of FTS and its analogs in vivo and in vitro is based on the suppression of the immunoassayable galectin-1 in H-Ras-transformed tumors. The basis of this assay depends upon the dose dependent loss of galectin-1 from cell membranes by FTS. Under maximal stimulation of tumor cells with FTS, 90% of galectin-1 is lost from membrane. This allows for an excellent dose response. A variation of this assay uses drug induced suppression of the anchor proteins in normal human lymphocytes isolated from patients being treated with FTS in phase 1 clinical trials. A dose of FTS or any other Ras antagonist that maximally suppresses galectin-1 (or the respective anchor protein of the antagonist) should be a dose that produces effects on other biological endpoints in vivo. When such assay is in mice and humans, therapeutically efficacious doses of Ras antagonists for humans can be determined.
# as §1
# [1] = test system: fibroblasts transformed by ErbB2; conditions: ErbB2 acting upstream of Ras; cited from earlier work
# [2] = test system: prenylated Rac-1 and Rho A; conditions: human melanoma cells; cited from earlier work
# myr-Ras = conditions: myr-Ras-transformed cells; cited from earlier work
# [3] = test system: prenylated Gβγ-subunits of heterotriimeric G-proteins; conditions: Rat-1 cell membranes; cited from earlier work
# [4] = test system: K-Ras 4B (12V), N-Ras (13V) and N-Ras (61L); conditions: membranes of rodent fibroblasts and of human tumor cell lines; cited from earlier work
# [5] = test system: H-Ras-transformed Rat-I (EJ) fibroblasts; conditions: cited from earlier work
# H-Ras [6] = conditions: cited from earlier work
# H-Ras [7] = molecular target: H-Ras (Homo sapiens, UniProt P01112, G12V); conditions: intact cells in vitro; dislodging H-Ras from its anchorage domains; cited from earlier work
# [8] = test system: cells transformed by v-Raf; conditions: v-Raf acts independently of Ras; cited from earlier work
# [9] = molecular target: T3, Ras-IDRA complex (34-43 kDa) (Rattus norvegicus, UniProt P11762); experiment: Chemical cross-linking (DSS/DSP) of Ras-IDRA complexes in EJ cells and membranes, SDS-PAGE, Ras Ab immunoblot, purification; assay type: cell-based
# T3 construct: expressed in transfected cells; host or cells: EJ cells (Rat-1 transformed with H-Ras (12V)) and their membranes; galectin-1 is endogenous
# T3 sequence (P11762 2-135 limits assumed, one chain of several): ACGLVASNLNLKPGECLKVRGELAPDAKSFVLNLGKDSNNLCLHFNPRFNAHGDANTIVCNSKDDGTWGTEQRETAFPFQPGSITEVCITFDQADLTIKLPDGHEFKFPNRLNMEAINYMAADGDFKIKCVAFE
# Experimental: FIG. 1 is a photograph of an electrophoretic gel illustrating use of Ras antibodies and chemical cross-linkers for identification of Ras IDRA complexes that are sensitive to the Ras inhibitor, FTS. Ras antibodies (Ab) identify Ras and Ras-IDRA complex in EJ cell membranes. Membranes corresponding to 10^6 control or FTS (50 μM)-treated EJ cells were incubated in 50 mM sodium bicarbonate buffer, pH 8.5, containing protease inhibitors and 2% DMSO (no cross-linker controls) or the indicated concentrations of the cross-linkers DSS or DSP. Samples of Triton X-100 extracts of the membranes were subjected to SDS-PAGE under non-reducing conditions followed by Western immunoblotting with Ras Ab. Open arrow corresponds to Ras (21 kDa) and closed arrow corresponds to the major Ras-putative IDRA band (34-43 kDa) detected in the blot under these conditions. This band is not detected in the blots of the non cross-linked samples or in the blots of the cross-linked samples of FTS-treated cells.
# We used chemical cross-linkers in an attempt to identify the rapidly dissociating complexes of Ras and Ras-interacting proteins. […] When membranes of control and FTS-treated cells were exposed to these cross-linkers solubilized and fractionated on SDS-containing gels, Ras-immunoreactive bands were clearly detected at 34-43 kDa, 50 kDa, and 70 kDa (FIG. 1). […]
# [10] = test system: cells transformed with the farnesylated but unmethylated K-Ras 4B (12V) CVYL isoform; conditions: cited from earlier work
# Ras methylation = conditions: in vitro; cited from earlier work
compound,measurement,setting,value
CC(C)=CCC/C(C)=C/CSc1ccccc1C(=O)O [GTS],inhibition of growth of Ras-transformed cells,Ras-transformed cells,not
same,reduction of the amount of membrane Ras in the cells,membrane Ras,not
same,reduction in the amount of membrane galectin-1,membrane galectin-1,no effect and not
COC(=O)c1ccccc1SCC=C(C)CCC=C(C)CCC=C(C)C [carboxy methylester analogue],inhibition of growth of Ras-transformed cells,Ras-transformed cells,not
"CC(C)=CCC/C(C)=C/CC/C(C)=C/CSc1ccccc1C(=O)O [FTS, S-trans, trans-farnesylthiosalicylic acid]",inhibition of growth of Ras-transformed cells,Ras-transformed cells,inhibited growth
same,inhibition of growth of ErbB2-transformed fibroblasts,[1],inhibits the growth
same,reduction of the amounts of prenylated Rac-1 and Rho A,[2],did not reduce
same,reduction of the amount of membrane Ras in the cells,membrane Ras,50-60%
same,effect on myr-Ras,myr-Ras,no effect
same,dislodging of prenylated Gβγ-subunits from membranes,[3],did not dislodge
same,"dislodging of K-Ras 4B (12V), N-Ras (13V) and N-Ras (61L) from membranes",[4],dislodges
same,growth inhibition,[5]; H-Ras-transformed Rat-I (EJ) fibroblasts,potent growth inhibitor
same,effective concentration range,[5]; affected specifically the membrane-bound H-Ras protein in these cells,5 to 50 µM
same,inhibition of farnesylation of H-Ras,H-Ras [6],did not inhibit
same,total amount of cellular Ras,H-Ras [7],reduced the total amount of cellular Ras
same,levels of endogenous galectin-1 in EJ cells,"membrane galectin-1; EJ cells, in parallel with the decrease in Ras",decreased the levels
same,reduction in the amount of membrane galectin-1,membrane galectin-1,90%
same,inhibition of growth of v-Raf-transformed cells,[8],not the growth
same,34-43 kDa Ras-putative IDRA cross-linked band,"[9]; FTS (50 μM)-treated EJ cells or membranes, DSS or DSP, Ras Ab blot (FIG. 1)",not detected; also recorded: not present
same,amount of galectin-1 purified from cross-linked complexes of treated EJ cells,"[9]; FTS-treated EJ cells, Western blot (FIG. 2)",reduces the amounts of anchor; also recorded: very low
same,inhibition of growth of K-Ras 4B (12V) CVYL-transformed cells,[10],inhibits growth
same,inhibition of Ras methylation,Ras methylation,inhibit
CC(C)=CCC/C(C)=C/CC/C(C)=C/CC/C(C)=C/CSc1ccccc1C(=O)O [GGTS],inhibition of growth of Ras-transformed cells,Ras-transformed cells,inhibited growth

# — patent US20040072258A1, “Isoprenoid-dependent ras anchorage (idra) proteins” (priority 2003, published 2004)
